Data taken from PubChem BioAssay AID1918996 (Molecular Pharmacology Branch, DTP, NCI, 2023).
pIC50: −log10 of the molar value.

System: 349418-098-R-PDC complex spheroid growth
Assay: Anticancer human tumor 349418-098-R-PDC patient-derived lung adenocarcinoma cell line growth inhibition [AhR]
Details: for pIC50: curve of first compound; for viability, T/C: stronger effect = lower value
Source text: Multicellular complex tumor spheroid response to aryl hydrocarbon receptor antagonists in combination with a variety of drugs and investigational agents in selected tumor cell lines
The current study was undertaken to assess response to aryl hydrocarbon receptor antagonists in combination with standard-of-care drugs and investigational agents in solid tumor complex spheroid models. Complex spheroids include a stromal component modeled by human endothelial cells (HUVEC) and fibroblasts modeled by human mesenchymal stem cells (MSCs). The concentration ranges selected for each drug and investigational agent were based upon clinically achievable concentrations if the clinical Cmax of the agent was known.
Compounds. The drugs and investigational agents: BAY 2416964 (NSC825713), GNF351 (NSC835774), CH-223191 (NSC835775), CPI-455 (NSC825282), aza-TdCyd (NSC777586), decitabine (NSC127716), belinostat (NSC758774), entinostat (NSC756642), pevonedistat (NSC761192), tazemetostat (NSC777109), talazoparib (NSC765396), olaparib (NSC753686), selinexor (NSC780203), nedisertib (M3814, NSC802822), bortezomib (NSC756655), venetoclax (NSC766270), doxorubicin (NSC123127), elimusertib (BAY189344, NSC800525), ceralasertib (AZD6738, NSC777638), TAK-243 (NSC785004), alisertib (NSC759677), etoposide (NSC141540), topotecan (NSC609699), eribulin (NSC707389), gemcitabine (NSC613327), carboplatin (NSC241240), cisplatin (NSC119875), and SN-38 (NSC673596) were obtained from the National Cancer Institute (NCI) Developmental Therapeutics Program Chemical Repository (32). The FDA-approved anticancer drug set is available from the Developmental Therapeutics Program at https://dtp.cancer.gov/organization/dscb/obtaining/available plates.htm. […] The stock solutions were prepared in dimethyl sulfoxide (DMSO, Sigma-Aldrich, St. Louis, MO, cat. D2650), except for the platinum compounds which were prepared in saline (Quality Biological, Gaithersburg, MD, cat. 114-055-101), at 800-fold the tested concentration and stored at -70 degrees C prior to their use. All drugs and investigational agents were tested over a range starting from a high concentration at or near the clinical Cmax and decreasing in half-log increments. If the clinical Cmax for an agent had not been determined, the highest concentration tested was 10 microM (Table 1).
Cell Culture. All cells were maintained in an incubator at 37 degrees C and 5% CO2 with 95% humidity. The PDC lines were cultured according to standard operating procedures established by the NCI PDMR (https://pdmr.cancer.gov). Briefly, all PDCs were thawed and cultured in Matrigel-coated flasks prepared with a working solution of 1X Ham's F-12 nutrient mix, without supplementation (Invitrogen, Waltham, MA, cat. 11765054), 100 U/mL penicillin-streptomycin (Invitrogen, cat. 15140122), and 2.5% Matrigel (Corning Inc., Corning, NY, cat. 354248) for the first three passages. All PDCs were cultured in complete DMEM/F-12 media containing advanced DMEM/F-12 (Invitrogen, cat. 12634028), 4.9% defined fetal bovine serum, heat inactivated (HyClone Laboratories Inc., Logan, UT, cat. SH30070.03HI), 389 ng/mL hydrocortisone (Sigma-Aldrich, cat. H4001), 9.7 ng/mL human EGF recombinant protein (Invitrogen, cat. PHG0313), 23.4 microg/mL adenine (Sigma-Aldrich, cat. A2786), 97.3 U/mL penicillin-streptomycin (Invitrogen, cat. 15140122), 1.9 mM L-glutamine (Invitrogen, cat. 25030081), and 9.7 microM Y-27632 dihydrochloride (Tocris Bioscience, Bristol, United Kingdom, cat. 1254). The PDCs were cultured in complete DMEM/F12 media without 10 microM Y-27632 dihydrochloride for at least two passages prior to the screen. The established cell lines NCI-H1341 and […] were cultured in DMEM/F-12, HEPES (Invitrogen, cat. 11330032), 5% defined fetal bovine serum (HyClone Laboratories Inc., cat. SH30070.03), ITS premix universal culture supplement [insulin (5 microg/mL), transferrin (5 microg/mL), and selenious acid (5 ng/mL)] […]

[1] = second compound 0.1 µM, first compound 0.00316 µM
[2] = second compound 0.1 µM, first compound 0.01 µM
[3] = second compound 0.1 µM, first compound 0.0316 µM
[4] = second compound 0.1 µM, first compound 0.1 µM
[5] = second compound 0.316 µM, first compound 0.00316 µM
[6] = second compound 0.316 µM, first compound 0.01 µM
[7] = second compound 0.316 µM, first compound 0.0316 µM
[8] = second compound 0.316 µM, first compound 0.1 µM
[9] = second compound 1 µM, first compound 0.00316 µM
[10] = second compound 1 µM, first compound 0.01 µM
[11] = second compound 1 µM, first compound 0.0316 µM
[12] = second compound 1 µM, first compound 0.1 µM
[13] = second compound 3.16 µM, first compound 0.00316 µM
[14] = second compound 3.16 µM, first compound 0.01 µM
[15] = second compound 3.16 µM, first compound 0.0316 µM
[16] = second compound 3.16 µM, first compound 0.1 µM
[17] = second compound 10 µM, first compound 0.00316 µM
[18] = second compound 10 µM, first compound 0.01 µM
[19] = second compound 10 µM, first compound 0.0316 µM
[20] = second compound 10 µM, first compound 0.1 µM
[21] = second compound 0.1 µM, first compound 0.316 µM
[22] = second compound 0.1 µM, first compound 1 µM
[23] = second compound 0.1 µM, first compound 3.16 µM
[24] = second compound 0.1 µM, first compound 10 µM
[25] = second compound 0.316 µM, first compound 0.316 µM
[26] = second compound 0.316 µM, first compound 1 µM
[27] = second compound 0.316 µM, first compound 3.16 µM
[28] = second compound 0.316 µM, first compound 10 µM
[29] = second compound 1 µM, first compound 0.316 µM
[30] = second compound 1 µM, first compound 1 µM
[31] = second compound 1 µM, first compound 3.16 µM
[32] = second compound 1 µM, first compound 10 µM
[33] = second compound 3.16 µM, first compound 0.316 µM
[34] = second compound 3.16 µM, first compound 1 µM
[35] = second compound 3.16 µM, first compound 3.16 µM
[36] = second compound 3.16 µM, first compound 10 µM
[37] = second compound 10 µM, first compound 0.316 µM
[38] = second compound 10 µM, first compound 1 µM
[39] = second compound 10 µM, first compound 3.16 µM
[40] = second compound 10 µM, first compound 10 µM
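Also: spheroids exposed to agents for seven days before luminescence viability read.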
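For viability, T/C in this document: spheroids also contain HUVEC endothelial cells and human MSC stroma.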

Row | Structure (SMILES) | pIC50 (second compound 0.1 µM) | pIC50 (second compound 0.316 µM) | pIC50 (second compound 1 µM) | pIC50 (second compound 3.16 µM) | pIC50 (second compound 10 µM) | viability, T/C [3] | viability, T/C [4] | viability, T/C [7] | viability, T/C [8] | viability, T/C [11] | viability, T/C [12] | viability, T/C [15] | viability, T/C [16] | viability, T/C [19] | viability, T/C [20] | viability, T/C [21] | viability, T/C [22] | viability, T/C [25] | viability, T/C [26] | viability, T/C [29] | further results
1 | CC[C@@]1(O)C(=O)OCc2c1cc1n(c2=O)Cc2cc3c(CN(C)C)c(O)ccc3nc2-1 + CC(CO)NC(=O)c1cc(-c2ccc(Cl)cc2)nn(-c2cnn(C)c2)c1=O | 7.61 | 7.77 | 7.97 | 7.91 | 8.44 | 43.9% | 16.2% | 37.7% | 12.8% | 29.3% | 12.8% | 21.9% | 12.4% | 23.1% | 13.6% | – | – | – | – | – | viability, T/C (second compound 0.1 µM, first compound 0.000316 µM): 90%; viability, T/C (second compound 0.1 µM, first compound 0.001 µM): 115%; viability, T/C [1]: 97.5%; viability, T/C [2]: 75.7%; viability, T/C (second compound 0.316 µM, first compound 0.000316 µM): 136%; viability, T/C (second compound 0.316 µM, first compound 0.001 µM): 118%; viability, T/C [5]: 87.8%; viability, T/C [6]: 60.9%; viability, T/C (second compound 1 µM, first compound 0.000316 µM): 118%; viability, T/C (second compound 1 µM, first compound 0.001 µM): 136%; viability, T/C [9]: 72.4%; viability, T/C [10]: 57.8%; viability, T/C (second compound 3.16 µM, first compound 0.000316 µM): 92.9%; viability, T/C (second compound 3.16 µM, first compound 0.001 µM): 93.2%; viability, T/C [13]: 83.4%; viability, T/C [14]: 56.3%; viability, T/C (second compound 10 µM, first compound 0.000316 µM): 51.1%; viability, T/C (second compound 10 µM, first compound 0.001 µM): 65%; viability, T/C [17]: 51.3%; viability, T/C [18]: 35%
2 | COc1cc(C2c3cc4c(cc3C(OC3OC5COC(C)OC5C(O)C3O)C3COC(=O)C23)OCO4)cc(OC)c1O (stereo not given) + CC(CO)NC(=O)c1cc(-c2ccc(Cl)cc2)nn(-c2cnn(C)c2)c1=O | 6.14 | 6.22 | 6.30 | 6.57 | 6.87 | 103% | 98% | 108% | 109% | 102% | 90.2% | 78.8% | 104% | 59% | 56.4% | 91.1% | 34.1% | 72.4% | 32.6% | 64.5% | viability, T/C [23]: 18%; viability, T/C [24]: 12.9%; viability, T/C [27]: 16.2%; viability, T/C [28]: 11.3%; viability, T/C [30]: 29%; viability, T/C [31]: 18.7%; viability, T/C [32]: 14.6%; viability, T/C [33]: 43.2%; viability, T/C [34]: 25.1%; viability, T/C [35]: 16.6%; viability, T/C [36]: 13.5%; viability, T/C [37]: 36%; viability, T/C [38]: 22.3%; viability, T/C [39]: 14.4%; viability, T/C [40]: 14.1%
3 | COc1cccc2c1C(=O)c1c(O)c3c(c(O)c1C2=O)CC(O)(C(=O)CO)CC3OC1CC(N)C(O)C(C)O1 (stereo not given) + CC(CO)NC(=O)c1cc(-c2ccc(Cl)cc2)nn(-c2cnn(C)c2)c1=O | > 7.50 | > 7.50 | > 7.50 | > 7.50 | > 7.50 | 21.8% | 13.4% | 26.6% | 13.2% | 25% | 14.7% | 19.6% | 14.4% | 18.5% | 12.3% | 3.76% | 0.59% | 3.63% | 0.47% | 3.05% | viability, T/C [23]: 2.28%; viability, T/C [24]: 5.15%; viability, T/C [27]: 3.14%; viability, T/C [28]: 5.48%; viability, T/C [30]: 0.52%; viability, T/C [31]: 3.58%; viability, T/C [32]: 5.75%; viability, T/C [33]: 2.92%; viability, T/C [34]: 0.71%; viability, T/C [35]: 2.73%; viability, T/C [36]: 5.34%; viability, T/C [37]: 1.49%; viability, T/C [38]: 1.33%; viability, T/C [39]: 3.87%; viability, T/C [40]: 6.78%
4 | Nc1ncn(C2CC(O)C(CO)O2)c(=O)n1 (stereo not given) + CC(CO)NC(=O)c1cc(-c2ccc(Cl)cc2)nn(-c2cnn(C)c2)c1=O | 6.87 | 7.20 | 7.04 | 6.99 | 7.35 | 73.4% | 55.2% | 72% | 35% | 67.9% | 41.6% | 84.4% | 50.6% | 49.8% | 43.2% | 36.6% | 23.8% | 43.1% | 25.7% | 43.3% | viability, T/C [1]: 101%; viability, T/C [2]: 90.6%; viability, T/C [5]: 108%; viability, T/C [6]: 106%; viability, T/C [9]: 78.6%; viability, T/C [10]: 67.3%; viability, T/C [30]: 28.9%; viability, T/C [13]: 55.4%; viability, T/C [14]: 64.9%; viability, T/C [33]: 30%; viability, T/C [34]: 26.8%; viability, T/C [17]: 51.9%; viability, T/C [18]: 63.9%; viability, T/C [37]: 24.8%; viability, T/C [38]: 20.1%
